{"source": "patent US11006626B2", "about": "“Compounds for protection of cells” (Sulfateq B.V., priority 2012, dated 2021)", "format_in_all_cases": "cell-based", "key": {"apherese blood platelets [1]": {"system": "apherese blood platelets", "experiment": "Apheresis platelets stored with Sul 136, Annexin V test by flow cytometry", "conditions": "stored at 4° C. with Sul 136", "protocol": "(§1) 300 μM suspension of Sul 136 is added with a procedure, which keeps the bag content sterile and the Sul 136 is kept in suspension by frequent whirling and stored at 37° C. before it is added to the freshly harvested platelets. The Sul 136 suspension is added to three platelet bags directly from the bag. After addition, the content of the platelet bag is gently mixed. After 2 hours the first sample is drawn with a seal-docked sample bag. The sample bag is disconnected by welding and from this sample bag the samples are taken for hematology analyzing, aggregometer tests and the flow-cytometry tests. Swirling in the bag is reported by experience of the laboratory worker in the standard format. Platelets without Sul 136 put on a flatbed shaker and stored at room temperature were used as control. Another control is stored at 4° C. Platelet samples in which Sul 136 is added, are stored without shaking in a refrigerator at 4° C.\nOn a Beckman Coulter FC 500 flow cytometer using the Roche Annexin-V FLUOS Staining Kit\nA mix of 20 μl Annexin-V fluorescein from Roche kit into 1 ml incubation buffer was made and 20 μl propidium iodide solution was added. 2 ml of platelet concentrate was centrifuged on standard Eppendorf centrifuge and the supernatant was discarded.\n1 ml PBS buffer was added and cell concentration was checked whether it was around 1.000.000. This was diluted 100 times with the prepared Annexin-V fluorescein and propidium iodide mix and incubated for 15 minutes. 500 μl incubation buffer from kit was added and cell analysis was made in a flowcytometer."}, "apherese blood platelets [2]": {"system": "apherese blood platelets", "experiment": "Apheresis platelets stored with Sul 136, hematology analysis (platelet count, MPV)", "conditions": "stored at 4° C. with Sul 136", "excerpt": "as §1, with “Platelets were obtained via standard plateletpheresis procedures either on Haemonetics (donor 2611811 and donor 2611855) or on Cobe instruments (donor 2611770). According the protocol all units would be obtained with plateletpheresis procedure with the Cobe instrument, but from the three donations two were not passing the blood bank quality control criteria. Nevertheless, all platelet donations have a similar concentration and a similar platelet quality. In none of the platelet concentrates clots were found. The freshly harvested platelets are weighed on a balance and for sampling of platelet concentrate a small PVC bag was seal-docked to the main platelet concentrate bag. Standard homogenization of platelet concentrate has to be done with a roller before sampling. 300” for “300”"}, "[3]": {"system": "Human Embryo Kidney (HEK) 293 cells", "experiment": "Hypothermia/rewarming injury of HEK cells, trypan blue viability count", "quoted_text": "Human Embryo Kidney (HEK) 293 cells were cultured in DMEM cell culture medium (Life Technologies, 41965-052) supplemented with fetal calf serum, penicillin and streptomycin. Cells were seeded at a density of 0.8-1.2E6 mL-1 in 25 cm2 polystyrene flasks, placed in a 37° C.\nThe compounds were dissolved in dimethyl sulfoxide (DMSO) to several concentrations. Before commencing experiments, this stock solution was dissolved in pre-warmed DMEM and further diluted to obtain a concentration range from 10 nM-1 mM. Cell culture medium was then replaced by these dilutions and cells were incubated in the presence of the compound for 1 hour. After incubation, lids were closed tightly and flasks were placed in a 4° C. room and cooled for 24 hours. After this cooling period, cells were placed back in the 37° C. incubator with lids closed and were allowed to rewarm for another 24 hours.\nAfter this rewarming period, microscopic images were taken to assess cell morphology (Nikon D5100, Nikon Diaphot-TMD). Cell culture medium was collected and centrifuged (4 minutes, 2000 rpm). The supernatant was collected and pH was immediately measured to prevent equilibration of the pH by the carbonate buffer in the medium, while the pelleted cells were resuspended in 5 mL of PBS. Cells remaining in the flask were washed twice with phosphate buffered saline (PBS) while the washing product was discarded. Subsequently, the cells were trypsinized by addition of 0.5 mL of trypsine and pooled with the resuspended pellet. This cell suspension was then stained at a final concentration of 0.2% trypan blue (Sigma, T8154), followed by manual assessment of viability and cell number on a Bürker-Türk hemocytometer. To conclude the assay, cell culture medium glucose levels were measured (Roche Accutrend Plus) as an indication of metabolic activity. All of these steps were performed with care to prevent mechanical stress to influence or alter the viability of the cells after cooling.\nThe amount represents the % cells that survived. […] In the control, the same procedure was applied to two badges of HEK cells."}}, "data": [{"smiles": "Cc1c(C)c2c(c(C)c1O)CCC(C)(C(=O)N1CCN(CC(=O)O)CC1)O2", "note": "(racemic) [SUL - 136, 2-(4-(6-hydroxy-2,5,7,8-tetramethylchroman-2-carbonyl)piperazin-1-yl)acetic acid]", "values": [{"measurement": "Annexin (% positive)", "setting": "apherese blood platelets [1]; Donor 2, Day 1", "result": 5.98, "unit": "%"}, {"measurement": "Annexin (% positive)", "setting": "apherese blood platelets [1]; Donor 2, Day 2", "result": 10.96, "unit": "%"}, {"measurement": "Annexin (% positive)", "setting": "apherese blood platelets [1]; Donor 2, Day 3", "result": 19.56, "unit": "%"}, {"measurement": "Annexin (% positive)", "setting": "apherese blood platelets [1]; Donor 2, Day 5", "result": 32.11, "unit": "%"}, {"measurement": "Annexin (% positive)", "setting": "apherese blood platelets [1]; Donor 2, Day 8", "result": 45.71, "unit": "%"}, {"measurement": "Annexin (% positive)", "setting": "apherese blood platelets [1]; Donor 2, Day 10", "result": 53.96, "unit": "%"}, {"measurement": "Annexin (% positive)", "setting": "apherese blood platelets [1]; Donor 2, Day 12", "result": 62.97, "unit": "%"}, {"measurement": "Annexin (% positive)", "setting": "apherese blood platelets [1]; Donor 2, Day 19", "result": 72.67, "unit": "%"}, {"measurement": "Annexin (% positive)", "setting": "apherese blood platelets [1]; Donor 3, Day 1", "result": 5.14, "unit": "%"}, {"measurement": "Annexin (% positive)", "setting": "apherese blood platelets [1]; Donor 3, Day 2", "result": 8.68, "unit": "%"}, {"measurement": "Annexin (% positive)", "setting": "apherese blood platelets [1]; Donor 3, Day 3", "result": 14.34, "unit": "%"}, {"measurement": "Annexin (% positive)", "setting": "apherese blood platelets [1]; Donor 3, Day 5", "result": 27.77, "unit": "%"}, {"measurement": "Annexin (% positive)", "setting": "apherese blood platelets [1]; Donor 3, Day 8", "result": 41.97, "unit": "%"}, {"measurement": "Annexin (% positive)", "setting": "apherese blood platelets [1]; Donor 3, Day 10", "result": 62.65, "unit": "%"}, {"measurement": "Annexin (% positive)", "setting": "apherese blood platelets [1]; Donor 3, Day 12", "result": 70.33, "unit": "%"}, {"measurement": "Annexin (% positive)", "setting": "apherese blood platelets [1]; Donor 3, Day 19", "result": 80.99, "unit": "%"}, {"measurement": "Annexin (% positive)", "setting": "apherese blood platelets [1]; donor 1, Day 1", "result": 4.51, "unit": "%"}, {"measurement": "Annexin (% positive)", "setting": "apherese blood platelets [1]; donor 1, Day 2", "result": 14.48, "unit": "%"}, {"measurement": "Annexin (% positive)", "setting": "apherese blood platelets [1]; donor 1, Day 3", "result": 18.24, "unit": "%"}, {"measurement": "Annexin (% positive)", "setting": "apherese blood platelets [1]; donor 1, Day 5", "result": 20.38, "unit": "%"}, {"measurement": "Annexin (% positive)", "setting": "apherese blood platelets [1]; donor 1, Day 8", "result": 34.56, "unit": "%"}, {"measurement": "Annexin (% positive)", "setting": "apherese blood platelets [1]; donor 1, Day 10", "result": 43.52, "unit": "%"}, {"measurement": "Annexin (% positive)", "setting": "apherese blood platelets [1]; donor 1, Day 12", "result": 56.91, "unit": "%"}, {"measurement": "Annexin (% positive)", "setting": "apherese blood platelets [1]; donor 1, Day 19", "result": 88.34, "unit": "%"}, {"measurement": "MPV", "setting": "apherese blood platelets [2]; Donor 2, Day 1", "result": 10.1, "unit": "fL"}, {"measurement": "Platelets/μl", "setting": "apherese blood platelets [2]; Donor 2, Day 1", "result": "1,004,000 Platelets/μl"}, {"measurement": "MPV", "setting": "apherese blood platelets [2]; Donor 2, Day 2", "result": 7.6, "unit": "fL"}, {"measurement": "Platelets/μl", "setting": "apherese blood platelets [2]; Donor 2, Day 2", "result": "1,272,000 Platelets/μl"}, {"measurement": "MPV", "setting": "apherese blood platelets [2]; Donor 2, Day 3", "result": 7.8, "unit": "fL"}, {"measurement": "Platelets/μl", "setting": "apherese blood platelets [2]; Donor 2, Day 3", "result": "1,220,000 Platelets/μl"}, {"measurement": "MPV", "setting": "apherese blood platelets [2]; Donor 2, Day 5", "result": 8.0, "unit": "fL"}, {"measurement": "Platelets/μl", "setting": "apherese blood platelets [2]; Donor 2, Day 5", "result": "1,252,000 Platelets/μl"}, {"measurement": "MPV", "setting": "apherese blood platelets [2]; Donor 2, Day 8", "result": 8.0, "unit": "fL"}, {"measurement": "Platelets/μl", "setting": "apherese blood platelets [2]; Donor 2, Day 8", "result": "1,168,000 Platelets/μl"}, {"measurement": "MPV", "setting": "apherese blood platelets [2]; Donor 2, Day 10", "result": 8.1, "unit": "fL"}, {"measurement": "Platelets/μl", "setting": "apherese blood platelets [2]; Donor 2, Day 10", "result": "1,104,000 Platelets/μl"}, {"measurement": "MPV", "setting": "apherese blood platelets [2]; Donor 2, Day 12", "result": 8.6, "unit": "fL"}, {"measurement": "Platelets/μl", "setting": "apherese blood platelets [2]; Donor 2, Day 12", "result": "1,032,000 Platelets/μl"}, {"measurement": "MPV", "setting": "apherese blood platelets [2]; Donor 2, Day 19", "result": 8.8, "unit": "fL"}, {"measurement": "Platelets/μl", "setting": "apherese blood platelets [2]; Donor 2, Day 19", "result": "860,000 Platelets/μl"}, {"measurement": "MPV", "setting": "apherese blood platelets [2]; Donor 3, Day 1", "result": 10.3, "unit": "fL"}, {"measurement": "Platelets/μl", "setting": "apherese blood platelets [2]; Donor 3, Day 1", "result": "980,000 Platelets/μl"}, {"measurement": "MPV", "setting": "apherese blood platelets [2]; Donor 3, Day 2", "result": 7.7, "unit": "fL"}, {"measurement": "Platelets/μl", "setting": "apherese blood platelets [2]; Donor 3, Day 2", "result": "1,188,000 Platelets/μl"}, {"measurement": "MPV", "setting": "apherese blood platelets [2]; Donor 3, Day 3", "result": 7.7, "unit": "fL"}, {"measurement": "Platelets/μl", "setting": "apherese blood platelets [2]; Donor 3, Day 3", "result": "1,072,000 Platelets/μl"}, {"measurement": "MPV", "setting": "apherese blood platelets [2]; Donor 3, Day 5", "result": 8.0, "unit": "fL"}, {"measurement": "Platelets/μl", "setting": "apherese blood platelets [2]; Donor 3, Day 5", "result": "1,068,000 Platelets/μl"}, {"measurement": "MPV", "setting": "apherese blood platelets [2]; Donor 3, Day 8", "result": 8.3, "unit": "fL"}, {"measurement": "Platelets/μl", "setting": "apherese blood platelets [2]; Donor 3, Day 8", "result": "992,000 Platelets/μl"}, {"measurement": "MPV", "setting": "apherese blood platelets [2]; Donor 3, Day 10", "result": 8.3, "unit": "fL"}, {"measurement": "Platelets/μl", "setting": "apherese blood platelets [2]; Donor 3, Day 10", "result": "892,000 Platelets/μl"}, {"measurement": "MPV", "setting": "apherese blood platelets [2]; Donor 3, Day 12", "result": 9.0, "unit": "fL"}, {"measurement": "Platelets/μl", "setting": "apherese blood platelets [2]; Donor 3, Day 12", "result": "912,000 Platelets/μl"}, {"measurement": "MPV", "setting": "apherese blood platelets [2]; Donor 3, Day 19", "result": 9.5, "unit": "fL"}, {"measurement": "Platelets/μl", "setting": "apherese blood platelets [2]; Donor 3, Day 19", "result": "692,000 Platelets/μl"}, {"measurement": "MPV", "setting": "apherese blood platelets [2]; donor 1, Day 1", "result": 10.6, "unit": "fL"}, {"measurement": "Platelets/μl", "setting": "apherese blood platelets [2]; donor 1, Day 1", "result": "1,000,000 Platelets/μl"}, {"measurement": "MPV", "setting": "apherese blood platelets [2]; donor 1, Day 2", "result": 9.5, "unit": "fL"}, {"measurement": "Platelets/μl", "setting": "apherese blood platelets [2]; donor 1, Day 2", "result": "1,192,000 Platelets/μl"}, {"measurement": "MPV", "setting": "apherese blood platelets [2]; donor 1, Day 3", "result": 9.2, "unit": "fL"}, {"measurement": "Platelets/μl", "setting": "apherese blood platelets [2]; donor 1, Day 3", "result": "1,240,000 Platelets/μl"}, {"measurement": "MPV", "setting": "apherese blood platelets [2]; donor 1, Day 5", "result": 9.1, "unit": "fL"}, {"measurement": "Platelets/μl", "setting": "apherese blood platelets [2]; donor 1, Day 5", "result": "1,232,000 Platelets/μl"}, {"measurement": "MPV", "setting": "apherese blood platelets [2]; donor 1, Day 8", "result": 9.3, "unit": "fL"}, {"measurement": "Platelets/μl", "setting": "apherese blood platelets [2]; donor 1, Day 8", "result": "1,352,000 Platelets/μl"}, {"measurement": "MPV", "setting": "apherese blood platelets [2]; donor 1, Day 10", "result": 9.6, "unit": "fL"}, {"measurement": "Platelets/μl", "setting": "apherese blood platelets [2]; donor 1, Day 10", "result": "1,228,000 Platelets/μl"}, {"measurement": "MPV", "setting": "apherese blood platelets [2]; donor 1, Day 12", "result": 9.8, "unit": "fL"}, {"measurement": "Platelets/μl", "setting": "apherese blood platelets [2]; donor 1, Day 12", "result": "1,204,000 Platelets/μl"}, {"measurement": "MPV", "setting": "apherese blood platelets [2]; donor 1, Day 19", "result": 8.8, "unit": "fL"}, {"measurement": "Platelets/μl", "setting": "apherese blood platelets [2]; donor 1, Day 19", "result": "1,068,000 Platelets/μl"}, {"measurement": "viability at 0.01 µM", "setting": "[3]; Homo sapiens, HEK293, 24 h, 10 nM, 24 h at 4° C., 24 h rewarming, read-out: % cells that survived", "result": 99.6, "unit": "%"}, {"measurement": "viability at 0.1 µM", "setting": "[3]; Homo sapiens, HEK293, 24 h, 100 nM, 24 h at 4° C., 24 h rewarming, read-out: % cells that survived", "result": 100, "unit": "%"}, {"measurement": "viability at 1 µM", "setting": "[3]; Homo sapiens, HEK293, 24 h, 1 μM, 24 h at 4° C., 24 h rewarming, read-out: % cells that survived", "result": 98.4, "unit": "%"}, {"measurement": "viability at 10 µM", "setting": "[3]; Homo sapiens, HEK293, 24 h, 10 μM, 24 h at 4° C., 24 h rewarming, read-out: % cells that survived", "result": 99.5, "unit": "%"}, {"measurement": "viability at 100 µM", "setting": "[3]; Homo sapiens, HEK293, 24 h, 100 μM, 24 h at 4° C., 24 h rewarming, read-out: % cells that survived", "result": 99.3, "unit": "%"}, {"measurement": "viability at 1000 µM", "setting": "[3]; Homo sapiens, HEK293, 24 h, 1 mM, 24 h at 4° C., 24 h rewarming, read-out: % cells that survived", "result": 100, "unit": "%"}, {"measurement": "% cells that survived, Mean", "setting": "[3]; mean over the tested concentrations", "result": 99, "unit": "%"}]}]}
